Reference: patent US20110039779A1, “IGF-1R BINDING PROTEINS AND ANTAGONISTS” (priority 2007, published 2011)
“And” between values parts separate entries of the source, which are not always exact repeats. Equal values may be shown once. Read-outs that look alike come from different tables or passages of the source. Where a SMILES comes first, the peptide text is derived from it.

Tests used:
MCF7 cells [1] = molecular target: T1, MCF7 cells (Homo sapiens, UniProt P08069); assay: antagonism assay in starved MCF7 cells, luminescence viability, 72 hrs; type: cell-based; conditions: read-out: Cell; Table 11
T1 sequence (P08069 31-736): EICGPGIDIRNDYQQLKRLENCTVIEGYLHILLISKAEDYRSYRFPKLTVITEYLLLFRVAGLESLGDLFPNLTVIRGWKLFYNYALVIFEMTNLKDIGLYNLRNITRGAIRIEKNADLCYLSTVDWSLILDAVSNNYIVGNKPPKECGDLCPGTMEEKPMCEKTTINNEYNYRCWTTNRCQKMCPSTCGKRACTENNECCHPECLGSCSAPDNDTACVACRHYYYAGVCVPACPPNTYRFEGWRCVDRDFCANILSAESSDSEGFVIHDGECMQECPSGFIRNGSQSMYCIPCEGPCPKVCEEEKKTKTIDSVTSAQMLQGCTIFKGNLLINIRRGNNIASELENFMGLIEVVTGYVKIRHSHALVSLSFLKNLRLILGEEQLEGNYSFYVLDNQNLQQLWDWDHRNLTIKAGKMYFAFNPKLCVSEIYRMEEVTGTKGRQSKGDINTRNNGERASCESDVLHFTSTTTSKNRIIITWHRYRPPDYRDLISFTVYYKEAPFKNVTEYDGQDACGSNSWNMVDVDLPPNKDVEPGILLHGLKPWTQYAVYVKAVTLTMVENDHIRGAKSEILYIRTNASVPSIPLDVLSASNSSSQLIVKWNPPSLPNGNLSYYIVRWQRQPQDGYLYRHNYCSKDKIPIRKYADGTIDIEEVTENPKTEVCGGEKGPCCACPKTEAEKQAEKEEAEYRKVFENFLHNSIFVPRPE
Protocol: Additional binding and antagonism assays using candidate peptides were performed. […] Cell viability was determined by luminescence assay and IC50 was calculated using standard techniques.

[2] = molecular target: T2, His-tagged soluble recombinant human IGF-IR (srhIGF-1R-his) (Homo sapiens, UniProt P08069); assay: ALPHAScreen competition binding assay, biotinylated hIGF-1
T2 construct: The extra-cellular domain of IGF-1R was obtained as a recombinant protein from R&D Systems; purchased R&D Systems, Inc., Minneapolis, Minn
T2 sequence (P08069 31-736 limits assumed): as the sequence (P08069 31-736) above
T2 sequence (P08069 741-935 limits assumed): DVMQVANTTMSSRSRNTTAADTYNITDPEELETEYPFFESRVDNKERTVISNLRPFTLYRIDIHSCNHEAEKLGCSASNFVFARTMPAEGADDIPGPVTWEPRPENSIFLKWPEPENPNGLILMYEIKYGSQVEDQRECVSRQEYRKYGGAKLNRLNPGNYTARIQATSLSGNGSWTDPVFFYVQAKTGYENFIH
Protocol: Binding Assays. […] Detection of the receptor ligand interaction was measured in an amplified luminescent proximity homogeneous assay (ALPHAScreen; BioSignal-Packard, Montreal). The assay was performed in 384-well Nunc™ white polystyrene microplates (Nalge Nunc International, Naperville, Ill.) with a final volume of 40 μL. […] Each concentration of competitor was assayed in duplicate. Non-specific binding was determined in the presence of 3×10^−5 M hIGF-1. The second step of the assay was to add acceptor beads and the incubation continued for 0.5 hr. The final step was to add donor beads and the incubation continued for an additional 1 hr. […] Primary data were background corrected, normalized to buffer controls and then expressed as % Specific Binding. The data were fit to a four-parameter non-linear regression analysis (y=min+(max-min)/(1+10̂((log IC50-x)*Hillslope))), which was used to determine IC50 values. The Z′-factor for this assay is greater than 0.7 (Z′=1-(3σ++3σ−)/|μ+−μ−|) and the signal-to-background (SB) ratio was between 40 and 70.

SW480 cells = type: cell-based
Protocol: (§1) For cell growth/density studies, a mitochondrial activity assay was used, as exemplified by the following. Cells (SW480, MCF-7S8) were propagated in complete medium (DME: F12, 10% FCS (SW 480) or 5% FCS (MCF-7S8, P/S)), trypsinized, and seeded in 96 well plates as 10,000 cells/well in medium with 0.5% FCS. All wells in the periphery were omitted and only filled with medium. […] All treatments are made in triplicates. […] Treatment was continued for 48 hours (SW480 cells) or 72 hours (MCF-7S8 cells) before quantification of the cell density. Media was exchanged each day. Media and peptides were diluted in DMSO. When measuring cell density, the volume of each well was adjusted to […] Pre-diluted WST-1 (1 ml+1.5 ml DME:F12) was added as 25 μL to each well including background samples. Three wells with media only served as background controls. The cells were incubated for 90 min protected against light in an incubator.

MCF-7S8 cells = MCF-7S8 cells (Homo sapiens, UniProt P08069); assay: cell growth/density, mitochondrial activity assay (WST-1), MCF-7S8; type: cell-based; conditions: one experiment only
Chain of MCF-7S8 cells (P08069 31-736): as the sequence (P08069 31-736) above
Protocol: as §1

MiaPaCa cells = assay: cell assay (WST-1), antagonism of IGF-1, MiaPaCa; type: cell-based, human; conditions: 5×10^−8 M IGF-1; 72 h; FIG. 10C
Protocol: (§2) Cell Assays. MCF7 or MiaPaCa cells were plated in 96 well plates at a concentration of 3×10^3 cells/well in 75 μL of serum-free RPMI-1640 and incubated overnight at 37° C. Dilutions of the peptides were prepared in a separate working plate and 75 μL added to the cells. […] Plates were incubated for 48-72 hours at 37° C. Viability was measured by the addition of 10 μL WST-1/well (Roche) as per the manufacturer's instructions.

MCF7 cells [3] = molecular target: T1, MCF7 cells; assay: cell assay (WST-1), antagonism of IGF-1, MCF7; type: cell-based; conditions: 5×10^−8 M IGF-1; 72 h; FIG. 10B
Protocol: as §2
The cells were treated as described in the materials and methods section. […] The data are presented as percent inhibition and to determine binding kinetic parameters data were fit to a four-parameter logistic equation.

IRS-1 [4] = assay: IRS-1 phosphorylation in MCF7 cells (immunoprecipitation, Western blot); type: cell-based, human; conditions: 0.5 nM IGF-1, 10 minutes, peptides 30 μM
Protocol: Preparation of whole-cell lysates, immunoprecipitation, and Western blot analysis. For qualitative IRS-1 phosphorylation analysis, MCF7 cells in monolayer cultures (about 80% of confluency) were used. […] After treatment, cells were rinsed twice with ice-cold PBS containing 0.2 mM PMSF and 1 mM Na3VO4 (all from SIGMA). Cells were scraped into the same buffer and pelleted by centrifugation at 200 g for 3 min. […] Cell lysates were cleared by centrifugation for 5 min at 14 000 g and the resulting supernatant was snap-frozen in EtOH-dry ice and stored at −80° C. The protein concentration was determined using the Dc Protein Assay Kit (Bio-Rad Laboratories).
Immunoprecipitations were performed with pre-cleared lysates for 4 hours at […] using 0.3-0.5 mg of total protein with 1 μg of polyclonal anti-IRS-1 antibody (Upstate Biotechnology), and 25 μL of Protein A/agarose slurry (SIGMA). Agarose beads with immobilized proteins were washed 3 times with IP wash buffer (50 mM Tris pH 7.5 (GibcoBRL), 150 mM NaCl, 1 mM Na3VO4, 0.2 mM PMSF). […]
Immunoprecipitates were subjected to SDS-PAGE on 4-15% Tris-HCl Ready Gels and transferred to Trans-Blot Transfer Medium nitrocellulose membranes (both from Bio-Rad Laboratories). […] Blots were exposed to an enhanced […] substrate (ECL Western Blotting Analysis System, Amersham Pharmacia Biotech). […]

[5] = system: SGBS adipocytes transfected with HIR-encoding DNA; assay: 3H glucose incorporation (insulin agonist activity) in SGBS adipocytes; type: cell-based
Protocol: Insulin increases uptake of ^3H glucose into adipocytes and its conversion into lipid. Incorporation of ^3H into the lipid phase was determined by partitioning of lipid phase into a scintillant mixture, which excludes water-soluble ^3H products. […] The results are expressed as increase relative to full insulin response.

MAPK44 = assay: downstream signaling in L6 cells: MAPK44; type: cell-based; conditions: 3 nM IGF-1, read-out: MAPK44, IC50 for down regulation of the stimulation to the basal level
Protocol: (§3) The tyrosine phosphorylation of IRS signaling (the 180 kDa band on a tyrosine phosphor Western blot) as well as activation of effectors MAPK 44 and 42 and PKB were analyzed by using antibodies specific for their active forms using methods substantially similar to those described in Example 14 of the '246 PCT application.
(§4) The effect of select peptides on downstream signaling (MAPK44, MAPK42, PKB/Akt, IRS-1, and IGF-1R) was also measured by studying the signaling in L6 cells predominantly expressing IGF-1R and very limited insulin receptors. […] The antagonistic effect of the peptides can be seen to affect all the downstream signaling from the IGF-1R.

PKB/Akt = assay: downstream signaling in L6 cells: PKB/Akt; type: cell-based; conditions: 3 nM IGF-1, read-out: PKB/Akt, IC50 for down regulation of the stimulation to the basal level
Protocol: as §3, §4

[6] = system: IGF-1R, IRS-1, MAPK42/44 and PKB/Akt; assay: IGF-1 induced phosphorylation (IGF-1R, IRS-1, MAPK42/44, PKB/Akt) in L6 and L6 hIR cells, summary in description; type: cell-based; conditions: read-out: phosphorylation of IGF-1R and MAPK42/44 in response to IGF-1 treatment, IC50
Protocol: The activation of HIR or HIGF-1R in adipocytes was measured by stimulating the cells and studying the level of tyrosine phosphorylation (Western blot) of the insulin receptor/IGF-1R. […] The IGF-1R will be present in symmetric homodimer complex as well as in the heterodimer with half insulin receptor.
as §3, §4

[7] = molecular target: T3, IGF-1R on L6 (with mainly symmetric IGF-1R) (Rattus norvegicus, UniProt P24062); assay: displacement of IGF-1 binding on L6 cells
T3 construct: L6 cells predominantly expressing IGF-1R and very limited insulin receptors; endogenous in cells; host or cells: L6 cells
T3 sequence (P24062 31-737 limits assumed): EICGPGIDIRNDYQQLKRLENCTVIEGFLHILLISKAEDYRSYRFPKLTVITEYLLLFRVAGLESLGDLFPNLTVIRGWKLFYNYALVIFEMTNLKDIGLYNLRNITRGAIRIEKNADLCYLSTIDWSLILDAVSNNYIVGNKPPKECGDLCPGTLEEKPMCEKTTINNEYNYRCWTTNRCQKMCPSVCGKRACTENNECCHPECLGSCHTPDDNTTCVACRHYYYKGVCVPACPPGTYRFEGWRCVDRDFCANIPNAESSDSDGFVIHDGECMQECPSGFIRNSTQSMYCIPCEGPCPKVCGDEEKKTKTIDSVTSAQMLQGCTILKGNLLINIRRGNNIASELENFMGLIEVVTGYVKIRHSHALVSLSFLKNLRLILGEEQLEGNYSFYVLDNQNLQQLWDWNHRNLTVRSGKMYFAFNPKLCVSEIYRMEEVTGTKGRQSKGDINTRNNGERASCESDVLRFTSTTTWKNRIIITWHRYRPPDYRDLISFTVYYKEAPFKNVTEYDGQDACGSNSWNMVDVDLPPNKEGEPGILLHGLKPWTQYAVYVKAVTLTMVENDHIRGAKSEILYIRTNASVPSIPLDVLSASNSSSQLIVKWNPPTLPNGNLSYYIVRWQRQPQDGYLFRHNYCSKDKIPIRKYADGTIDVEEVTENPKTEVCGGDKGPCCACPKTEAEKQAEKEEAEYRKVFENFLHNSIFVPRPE
T3 sequence (P24062 742-1370 limits assumed): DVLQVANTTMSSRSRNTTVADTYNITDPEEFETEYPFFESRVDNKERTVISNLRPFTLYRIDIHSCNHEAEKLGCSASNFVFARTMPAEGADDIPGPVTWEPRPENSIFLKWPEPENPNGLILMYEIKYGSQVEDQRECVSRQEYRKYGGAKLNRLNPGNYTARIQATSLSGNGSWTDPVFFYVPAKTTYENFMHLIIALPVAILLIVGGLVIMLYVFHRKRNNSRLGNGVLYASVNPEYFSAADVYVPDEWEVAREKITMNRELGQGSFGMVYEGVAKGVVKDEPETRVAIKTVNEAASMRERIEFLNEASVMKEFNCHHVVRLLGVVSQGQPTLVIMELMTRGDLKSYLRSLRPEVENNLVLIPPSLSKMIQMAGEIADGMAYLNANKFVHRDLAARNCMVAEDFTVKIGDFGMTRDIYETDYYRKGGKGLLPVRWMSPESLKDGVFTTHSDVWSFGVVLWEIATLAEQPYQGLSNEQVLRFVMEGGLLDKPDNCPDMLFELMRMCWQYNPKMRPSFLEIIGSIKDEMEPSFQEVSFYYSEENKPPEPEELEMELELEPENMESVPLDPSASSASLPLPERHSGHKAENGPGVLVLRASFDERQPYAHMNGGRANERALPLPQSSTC

[8] = system: L6 hIR (with mainly hybrid IGF-1R/IR); assay: displacement of IGF-1 binding on L6 hIR cells
Chain of L6 hIR (with mainly hybrid IGF-1R/IR) (P24062 31-737 limits assumed): as the sequence (P24062 31-737 limits assumed) above
Chain of L6 hIR (with mainly hybrid IGF-1R/IR) (P24062 742-1370 limits assumed): as the sequence (P24062 742-1370 limits assumed) above

IRS-1 [9] = assay: downstream signaling: IRS-1 tyrosine phosphorylation; type: cell-based
Protocol: as §3, §4

IGF-IR = assay: downstream signaling in L6 cells: IGF-IR; type: cell-based; conditions: 3 nM IGF-1, read-out: IGF-IR, IC50 for down regulation of the stimulation to the basal level
Protocol: as §3, §4

MAPK42 = assay: downstream signaling in L6 cells: MAPK42; type: cell-based; conditions: 3 nM IGF-1, read-out: MAPK42, IC50 for down regulation of the stimulation to the basal level
Protocol: as §3, §4

insulin receptor/IGF-1R = assay: tyrosine phosphorylation of insulin receptor/IGF-1R in L6-hIR cells (Western blot); type: cell-based
[10] = read-out: IC50 in SW480 (M) in presence of IGF-1/alone: in presence of IGF-1, first value of the cell: concentration needed to blunt the effect of 10 nM IGF-1, cells in words only = effect as reported, 48 hours

Compound: CC(C)C[C@H](NC(=O)[C@H](CS)NC(=O)[C@H](CO)NC(=O)[C@H](Cc1ccc(O)cc1)NC(=O)[C@H](Cc1ccccc1)NC(=O)[C@@H](N)[C@@H](C)O)C(=O)N[C@@H](C)C(=O)N[C@@H](CO)C(=O)N[C@@H](CC(C)C)C(=O)N[C@@H](CC(C)C)C(=O)N[C@H](C(=O)NCC(=O)N[C@H](C(=O)N1CCC[C@H]1C(=O)N[C@@H](CCC(N)=O)C(=O)N1CCC[C@H]1C(=O)N[C@@H](CC(N)=O)C(=O)N[C@@H](CCCNC(=N)N)C(=O)NCC(=O)N1CCC[C@H]1C(=O)N[C@@H](Cc1c[nH]c2ccccc12)C(=O)N[C@@H](CCC(=O)O)C(=O)N[C@@H](CCCNC(=N)N)C(=O)N[C@@H](CS)C(=O)N[C@@H](CCCNC(=N)N)C(=O)O)[C@@H](C)O)[C@@H](C)O [RP6] (H-TFYSCLASLLTGTPQPNRGPWERCR-OH)
- IC50 (MCF7 cells [1]): 9 µM
- IC50 [2]: 2.7 µM

Compound: ESYGDCRDRPCGDAPNFYDWFVQQASE [Peptide F270]
- IC50 in SW480 (M) in presence of IGF-1/alone: in presence of IGF-1 (SW480 cells; first value of the cell: concentration needed to blunt the effect of 10 nM IGF-1, cells in words only = effect as reported, 48 hours): agonistic?
- IC50 (SW480 cells; [10]): 2e-06 M
- effect on MCF-7 (MCF-7S8 cells): agonistic effects

Compound: SFYSCLESLVNGPAEKSRGQWDGCRK [Peptide F250]
- antagonism of IGF-1 activity in MiaPaCa cells (MiaPaCa cells): antagonism of IGF-1 activity in MiaPaCa cells
- antagonism of IGF-1 activity in MCF-7 cells (MCF7 cells [3]): antagonism of IGF-1 activity in MCF-7 cells
- IC50 (SW480 cells; [10]): 2e-06 M and 1e-06 M
- IGF-1-induced phosphorylation of IRS-1 (IRS-1 [4]): inhibited
- competition of IGF-1 binding ([2]; FIG. 10A): competes IGF-1 binding

Compound: SFYSCLESLVQGPAEKSRGQWEGCRK [Peptide F293]
- effect on glucose uptake induced by insulin or IGF-1 ([5]; SGBS adipocytes, FIGS. 1A and 1B): neither peptide F138 nor peptide F293 has any substantial effect on glucose uptake induced by insulin or IGF-1
- doses not affecting glucose uptake in response to insulin/IGF-1 ([5]; SGBS cells): < 5 µM
- IC50 (SW480 cells; read-out: IC50 in SW480 (M) in presence of IGF-1/alone: alone, second value of the cell: concentration needed to inhibit basal level in 0.5% FCS): 1e-07 M
- inhibition of basal growth of SW480, doses (SW480 cells; without IGF-1): inhibition of basal growth was observed
- IC50 (MAPK44): 0.5 µM
- IC50 (PKB/Akt): > 1 µM
- IC50 [6]: 0.5 µM
- concentration displacing IGF-1 binding to IGF-1R on L6 [7]: 150 nM
- concentration displacing IGF-1 binding in L6 hIR [8]: 150 nM
- effect on IGF-1 stimulated IRS-1 phosphorylation (IRS-1 [9]; FIG. 4, 10 min): clearly inhibits the IGF-1 stimulated IRS-1 phosphorylation
- IC50 (IRS-1 [9]; L6 cells, 3 nM IGF-1, read-out: IRS-1, IC50 for down regulation of the stimulation to the basal level): > 1 µM
- IC50 (IGF-IR): 0.5 µM
- IC50 (MAPK42): 1 µM
- inhibition of IGF-1 induced versus insulin induced phosphorylation (insulin receptor/IGF-1R): more effective on IGF-1 induced phosphorylation as compared to insulin induced phosphorylation
- effect on insulin stimulated tyrosine phosphorylation (insulin receptor/IGF-1R; 2 μM peptide, 10 min): marginal effect
- effect on tyrosine phosphorylation by IGF-1 (insulin receptor/IGF-1R; 2 μM peptide, 10 min): inhibited
